One assay concerns HCT116 cells. Briefly: Anti-tumor cell proliferation activity of compound of formula (D-H), Cell-Titer Glo, HCT116. The format is cell-based. The settings on record: Homo sapiens, HCT-116, 72 h. Here is the method: (§1) Cell culture: HCT116 cells and SKBR3 cells were cultured with a McCoy's 5a medium containing 10% fetal bovine serum+1% penicillin-streptomycin at 37° C. with 5% CO2, and OVCAR3 cells were cultured with a 1640 medium containing 20% fetal bovine serum+2 μg/mL bovine insulin+1% penicillin-streptomycin at 37° C. with 5% CO2. Cells at logarithmic growth phase were available for the experiment.
(§2) Cell proliferation activity test: The Cell-Titer Glo reagent was used to test the compound for inhibitory activity on proliferation of the three cell strains HCT116, SKBR3, and OVCAR3. HCT116 cells (1500 per well), SKBR3 cells (3000 per well), and OVCAR3 cells (5000 per well) were seeded on 96-well plates and incubated at 37° C. with 5% CO2 for 24 h. After a solution of the compound to be detected was added (the compound was dissolved in DMSO so that the compound concentration was 1 mM, then the compound was diluted to […] in DMSO at 9 concentrations in a 3-fold dilution, and 10 μL of the prepared compound solution was transferred to the 96-well plate so that the final concentration was 0-300 nM), the mixture was incubated at 37° C. with 5% CO2. HCT116 cells were cultured for 3 days, and SKBR3 cells and OVCAR3 cells were cultured for 5 days. The Cell-Titer Glo reagent was added and the cell activity was measured.
(§3) A negative control group and a positive control group were respectively used as Bottom and Top. The negative control group was not added with cells, only added with the culture medium in the same volume, and other operations were consistent with those of the experimental group. The positive control group was not added with the test drug, and other operations were consistent with those of the experimental group.
(§4) Data analysis: % Inhibition was calculated, and compound IC50 was fitted.
(§5) % Inhibition=1-100%×(Signal−Bottom)/(Top−Bottom).
(§6) Signal referred to the signal value of the experimental group, Bottom referred to the average signal value of the negative control group, and Top referred to the average signal value of the positive control group.

Another assay concerns OVCAR3 cells. Briefly: Anti-tumor cell proliferation activity of compound of formula (D-H), Cell-Titer Glo, OVCAR3. Type of assay: cell-based. Particulars: Homo sapiens, OVCAR-3, 120 h. Here is the method: as §1, §2, §3, §4, §5, §6
Another assay has as its system SKBR3 cells. Briefly: Anti-tumor cell proliferation activity of compound of formula (D-H), Cell-Titer Glo, SKBR3. Type of assay: cell-based, human. Here is the method:
as §1, §2, §3, §4, §5, §6

Assay [1] deals with human ROR1 on stably transfected cell strain MCF7-hROR1 clone 2G2 (human, UniProt Q01973 30-406). Description: flow cytometry (FACS) on MCF7-hROR1 clone 2G2 cells, 5-fold dilutions from 100 nM, Alexa Fluor 647 anti-human IgG secondary antibody, four-parameter fit. Here is the method:
Stably transfected cell strain MCF7-hROR1 clone 2G2 constructed in the steps described above was expanded to a logarithmic growth phase in a T-75 cell culture flask, and the medium supernatant was discarded after centrifugation. The cell pellet was washed twice with PBS. […] After the mixture was washed twice with PBS, a secondary antibody was added: Alexa Fluor® 647 AffiniPure Goat Anti-Human IgG (H+L) (purchased from Jackson Immuno, Cat. No: 109-605-088), and the mixture was incubated at 4° C. for 1 h. After the mixture was washed twice with PBS, the cells were resuspended, and detected and analyzed by FACS (FACS Canto™, purchased from BD Biosciences). Data were analyzed by four-parameter curve fitting using Graphpad Prism software to give EC₅₀ values.
For orientation: In flow cytometry, cells or beads pass a laser one at a time.

[2] abbreviates: read-out: HCT116 Antiproliferative activity IC50 (nM), HCT116 cells, 3 days.
[3] abbreviates: read-out: OVCAR3 Antiproliferative activity IC50 (nM).
The mark [4] stands for this setting: Homo sapiens, SK-BR-3, 120 h, read-out: SKBR3 Antiproliferative activity IC50 (nM), SKBR3 cells, 5 days.

As usually defined, the IC50 is the concentration needed to halve the response being measured. For orientation: EC50 means the concentration giving half of the maximal effect.

Read-outs that look alike come from different tables or passages of the source.

As to `CC[C@@]1(O)C(=O)OCc2c1cc1n(c2=O)Cc2c-1nc1cc3c(cc1c2CNC(=O)C(O)C1CC1)OCO3` (stereo partly drawn) [Compound 14, 2-cyclopropyl-N—(((S)-7-ethyl-7-hydroxy-8,11-dioxo-7,8,11,13-tetrahydro-10H-[1,3]dioxolo[4,5-g]pyrano[3′,4′:6,7]indolizino[1,2-b]quinolin-14-yl)methyl)-2-hydroxyacetamide], the IC50 was < 10 nM in the assay on HCT116 cells (setting [2]), 0.9 nM in the assay on OVCAR3 cells (setting [3]) and 2.2 nM in the assay with SKBR3 cells (setting [4]).

Regarding `CC[C@@]1(O)C(=O)OCc2c1cc1n(c2=O)Cc2c-1nc1cc3c(cc1c2CNC(=O)[C@@H](O)C1CC1)OCO3` [Compound 14-P1, (S)-2-cyclopropyl-N—(((S)-7-ethyl-7-hydroxy-8,11-dioxo-7,8,11,13-tetrahydro-10H-[1,3]dioxolo[4,5-g]pyrano[3′,4′:6,7]indolizino[1,2-b]quinolin-14-yl)methyl)-2-hydroxyacetamide], the IC50 in the assay with HCT116 cells (setting [2]) is < 10 nM; with OVCAR3 cells (setting [3]), 0.6 nM; in the assay with SKBR3 cells (Homo sapiens, SK-BR-3, 120 h, SKBR3 cells, 5 days, read-out: SKBR3 Antiproliferative activity IC50), 2.1 nM.

Regarding `CC[C@@]1(O)C(=O)OCc2c1cc1n(c2=O)Cc2c-1nc1cc3c(cc1c2CNC(=O)C(O)C1CC1)OCO3` (stereo partly drawn) [Compound 14-P2, 2-cyclopropyl-N—(((S)-7-ethyl-7-hydroxy-8,11-dioxo-7,8,11,13-tetrahydro-10H-[1,3]dioxolo[4,5-g]pyrano[3′,4′:6,7]indolizino[1,2-b]quinolin-14-yl)methyl)-2-hydroxyacetamide], the IC50 was 10 to 100 nM with HCT116 cells (HCT116 cells, 3 days, read-out: HCT116 Antiproliferative activity IC50); 1 nM in the assay with OVCAR3 cells (OVCAR3 cells, 5 days, read-out: OVCAR3 Antiproliferative activity IC50); 3.5 nM in the assay on SKBR3 cells (read-out: SKBR3 Antiproliferative activity IC50, SKBR3 cells, 5 days).

As to `CC[C@@]1(O)C(=O)OCc2c1cc1n(c2=O)Cc2c-1nc1cc(F)c(Cl)c(F)c1c2CNC(=O)CO` [Compound 21, (S)-N-((9-chloro-4-ethyl-8,10-difluoro-4-hydroxy-3,14-dioxo-3,4,12,14-tetrahydro-1H-pyrano[3′,4′:6,7]indolizino[1,2-b]quinolin-11-yl)methyl)-2-hydroxyacetamide], the results for the IC50 with HCT116 cells (setting [2]), in the assay with OVCAR3 cells (setting [3]) and in the assay on SKBR3 cells (setting [4]) were < 10 nM, 1.7 nM and 4 nM, respectively.

For the molecule `CC[C@@]1(O)C(=O)OCc2c1cc1n(c2=O)Cc2c-1nc1cc(F)c(Cl)c(F)c1c2CNC(=O)C(C)(C)O` [Compound 22, (S)-N-((9-chloro-4-ethyl-8,10-difluoro-4-hydroxy-3,14-dioxo-3,4,12,14-tetrahydro-1H-pyrano[3′,4′:6,7]indolizino[1,2-b]quinolin-11-yl)methyl)-2-hydroxy-2-methylpropanamide], the IC50 was < 10 nM in the assay on HCT116 cells (setting [2]), 1.4 nM in the assay on OVCAR3 cells (setting [3]) and 3.5 nM with SKBR3 cells (setting [4]).

Turning to `CC[C@@]1(O)C(=O)OCc2c1cc1n(c2=O)Cc2c-1nc1cc(F)c(Cl)c(F)c1c2CNC(=O)C(O)C1CC1` (stereo partly drawn) [Compound 23, N—(((S)-9-chloro-4-ethyl-8,10-difluoro-4-hydroxy-3,14-dioxo-3,4,12,14-tetrahydro-1H-pyrano[3′,4′:6,7]indolizino[1,2-b]quinolin-11-yl)methyl)-2-cyclopropyl-2-hydroxyacetamide], the values for the IC50 in the assay with HCT116 cells (setting [2]), in the assay with OVCAR3 cells (setting [3]) and with SKBR3 cells (setting [4]) were < 10 nM, 3.9 nM and 5.3 nM, respectively.

As to `CC[C@@]1(O)C(=O)OCc2c1cc1n(c2=O)Cc2c-1nc1cc(F)c(Cl)c(F)c1c2CNC(=O)[C@@H](C)O` [Compound 25, (R)—N—(((S)-9-chloro-4-ethyl-8,10-difluoro-4-hydroxy-3,14-dioxo-3,4,12,14-tetrahydro-1H-pyrano[3′,4′:6,7]indolizino[1,2-b]quinolin-11-yl)methyl)-2-hydroxypropanamide], the IC50 was < 10 nM with HCT116 cells (setting [2]), 2 nM in the assay on OVCAR3 cells (setting [3]) and 3.7 nM in the assay with SKBR3 cells (setting [4]).

Consider `CC[C@@]1(O)C(=O)OCc2c1cc1n(c2=O)Cc2c-1nc1cc(F)c(Cl)c(F)c1c2CNC(=O)[C@H](C)O` [Compound 26, (S)-N-(((S)-9-chloro-4-ethyl-8,10-difluoro-4-hydroxy-3,14-dioxo-3,4,12,14-tetrahydro-1H-pyrano[3′,4′:6,7]indolizino[1,2-b]quinolin-11-yl)methyl)-2-hydroxypropanamide], for which the IC50 in the assay on HCT116 cells (setting [2]) was < 10 nM; in the assay with OVCAR3 cells (setting [3]), 1.6 nM; in the assay on SKBR3 cells (setting [4]), 4.2 nM.

As to `CC[C@@]1(O)C(=O)OCc2c1cc1n(c2=O)Cc2c-1nc1cc3c(c(F)c1c2CNC(=O)C(O)C1CC1)OCO3` (stereo partly drawn) [Compound 35, 2-cyclopropyl-N-(((S)-7-ethyl-15-fluoro-7-hydroxy-8,11-dioxo-7,8,11,13-tetrahydro-10H-[1,3]dioxolo[4,5-g]pyrano[3′,4′:6,7]indolizino[1,2-b]quinolin-14-yl)methyl)-2-hydroxyacetamide], the IC50 was < 10 nM in the assay with HCT116 cells (setting [2]), 1.2 nM with OVCAR3 cells (setting [3]) and 3.5 nM in the assay on SKBR3 cells (setting [4]).

B1: ADC-L1-19-8 (antibody, human IgG1, kappa, V domains shown)
VH: QVQLQESGPGLVKPSQTLSLTCTVSGYAFTAYNIHWVRQAPGQGLEWMGSFDPYDGGSSYNQKFKDRLTISKDTSKNQVVLTMTNMDPVDTATYYCARGWYYFDYWGHGTLVTVSS
VL: DIVMTQTPLSLPVTPGEPASISCRASKSISKYLAWYQQKPGQAPRLLIYSGSTLQSGIPPRFSGSGYGTDFTLTINNIESEDAAYYFCQQHDESPYTFGEGTKVEIKR
modifications: drug-linker L1-19 on cysteine thiols after TCEP reduction; positions not given; DAR 7.1 for the whole conjugate
notes: Antibody-drug conjugate
In assay [1], B1 had an EC50 of 0.68 nM.

B2: ADC-L1-19-P1-8 (antibody, human IgG1, kappa, V domains shown)
VH: QVQLQESGPGLVKPSQTLSLTCTVSGYAFTAYNIHWVRQAPGQGLEWMGSFDPYDGGSSYNQKFKDRLTISKDTSKNQVVLTMTNMDPVDTATYYCARGWYYFDYWGHGTLVTVSS
VL: DIVMTQTPLSLPVTPGEPASISCRASKSISKYLAWYQQKPGQAPRLLIYSGSTLQSGIPPRFSGSGYGTDFTLTINNIESEDAAYYFCQQHDESPYTFGEGTKVEIKR
modifications: drug-linker L1-19-P1 on cysteine thiols after TCEP reduction; positions not given; DAR 7.7 for the whole conjugate
notes: Antibody-drug conjugate
B2 had an EC50 in assay [1] of 0.34 nM.

B3: ROR1-Ab-1 (antibody, human IgG1, kappa, V domains shown)
VH: QVQLQESGPGLVKPSQTLSLTCTVSGYAFTAYNIHWVRQAPGQGLEWMGSFDPYDGGSSYNQKFKDRLTISKDTSKNQVVLTMTNMDPVDTATYYCARGWYYFDYWGHGTLVTVSS
VL: DIVMTQTPLSLPVTPGEPASISCRASKSISKYLAWYQQKPGQAPRLLIYSGSTLQSGIPPRFSGSGYGTDFTLTINNIESEDAAYYFCQQHDESPYTFGEGTKVEIKR
notes: also called anti-human ROR1 monoclonal antibody ROR1-Ab-1
Molecule B3 showed an EC50 in assay [1] of 0.99 nM. Against the preceding molecule, the EC50 is about 2.9-fold higher.

B4: ADC-L1-0-8 (antibody, human IgG1, kappa, V domains shown)
VH: QVQLQESGPGLVKPSQTLSLTCTVSGYAFTAYNIHWVRQAPGQGLEWMGSFDPYDGGSSYNQKFKDRLTISKDTSKNQVVLTMTNMDPVDTATYYCARGWYYFDYWGHGTLVTVSS
VL: DIVMTQTPLSLPVTPGEPASISCRASKSISKYLAWYQQKPGQAPRLLIYSGSTLQSGIPPRFSGSGYGTDFTLTINNIESEDAAYYFCQQHDESPYTFGEGTKVEIKR
modifications: drug-linker L1-0 on cysteine thiols after TCEP reduction; positions not given; DAR 6.6 for the whole conjugate
Take B4: in assay [1], the response was half-maximal at 0.75 nM (EC50).

B5: ADC-L1-19-9 (antibody, human IgG1, kappa, V domains shown)
VH: EVQLLESGGGLVQPGGSLRLSCAASGFTFSNYAMSWVRQAPGKGLEWVSSISHNSGSTYYADSVKGRFTISRDNSKNTLYLQMNSLRAEDTAVYYCAKFISARKSLGRSYSNGMDVWGQGTLVTVSS
VL: QSVLTQPPSASGTPGQRVTISCTGSSSNIGSNDVTWYQQLPGTAPKLLIYADSKRPSGVPDRFSGSKSGTSASLAISGLRSEDEADYYCGTWDYSLSGYVFGGGTKLTVLR
modifications: drug-linker L1-19 on cysteine thiols after TCEP reduction; positions not given; DAR 7.3 for the whole conjugate
notes: Antibody-drug conjugate
B5 had an EC50 in assay [1] of 0.42 nM.

B6: ADC-L1-19-P1-9 (antibody, human IgG1, kappa, V domains shown)
VH: EVQLLESGGGLVQPGGSLRLSCAASGFTFSNYAMSWVRQAPGKGLEWVSSISHNSGSTYYADSVKGRFTISRDNSKNTLYLQMNSLRAEDTAVYYCAKFISARKSLGRSYSNGMDVWGQGTLVTVSS
VL: QSVLTQPPSASGTPGQRVTISCTGSSSNIGSNDVTWYQQLPGTAPKLLIYADSKRPSGVPDRFSGSKSGTSASLAISGLRSEDEADYYCGTWDYSLSGYVFGGGTKLTVLR
modifications: drug-linker L1-19-P1 on cysteine thiols after TCEP reduction; positions not given; DAR 7.7 for the whole conjugate
notes: Antibody-drug conjugate
B6 had an EC50 in assay [1] of 0.5 nM. This EC50 and that of the molecule before are within 1.5-fold of each other.

These data come from patent publication US20250304717A1, “CAMPTOTHECIN DERIVATIVE AND LIGAND-DRUG CONJUGATE” (HAINAN SIMCERE ZAIMING PHARMACEUTICAL CO., LTD., priority 2022, published 2025).
